Data on nine molecules can be found in PubChem BioAssay AID260 (DTP/NCI, 2004).

The test has as its system CD2F1 mice, intracerebral L1210 leukemia, survival T/C. Nature of the test: NCI In Vivo Anticancer Drug Screen. Data for tumor model L1210 Leukemia (intracerebral) in CD2F1 (CDF1) mice. The note with it: higher = longer survival. The protocol:
The antitumor activity of compounds was measured in mice bearing transplantable tumors. Survival or tumor size were measured and the results are expressed as the measurement made in the treated group (T) divided by the measurement made in the vehicle treated control group (C). The tumor model used in this assay is L1210 Leukemia (intracerebral) in CD2F1 (CDF1) mice

Setting [1] is: endpoint: median survival time, dose: 100.0 mg/kg/injection, schedule: Q01DX009 (ip), vehicle: saline.
The mark [2] stands for this setting: endpoint: median survival time, dose: 200.0 mg/kg/injection, schedule: Q01DX009 (ip), vehicle: saline.
Where [3] appears, read: endpoint: median survival time, dose: 400.0 mg/kg/injection, schedule: Q01DX009 (ip), vehicle: saline.

Values joined by “and” are separate entries in the source; they are usually repeats but may differ in a detail not shown here. Identical values can stand only once. Inconclusive results and toxic doses are left out.

On to `CC1CCC(NC(=O)N(CCCl)N=O)CC1` (stereo unspecified), for which the T/C (endpoint: median survival time, dose: 4.0 mg/kg/injection, schedule: Q01DX001 (ip), vehicle: other) was 123 % of control; the T/C (endpoint: median survival time, dose: 6.25 mg/kg/injection, schedule: Q01DX001 (ip), vehicle: DMSO) was 116 % of control; the T/C (endpoint: median survival time, dose: 6.25 mg/kg/injection, schedule: Q01DX001 (ip), vehicle: saline + alcohol) was 116 % of control; the T/C (endpoint: median survival time, dose: 6.25 mg/kg/injection, schedule: Q01DX001 (oral), vehicle: saline + alcohol) is 109 % of control; the T/C (endpoint: median survival time, dose: 12.5 mg/kg/injection, schedule: Q01DX001 (ip), vehicle: DMSO) was 116 % of control; the T/C (endpoint: median survival time, dose: 12.5 mg/kg/injection, schedule: Q01DX001 (ip), vehicle: saline + alcohol) was 119 % of control. For the same molecule, the T/C runs as follows: (endpoint: median survival time, dose: 12.5 mg/kg/injection, schedule: Q01DX001 (oral), vehicle: saline + alcohol) 109 % of control; (endpoint: median survival time, dose: 16.0 mg/kg/injection, schedule: Q01DX001 (ip), vehicle: other) 166 % of control; (endpoint: median survival time, dose: 25.0 mg/kg/injection, schedule: Q01DX001 (ip), vehicle: saline + alcohol) 166 % of control; (endpoint: median survival time, dose: 25.0 mg/kg/injection, schedule: Q01DX001 (oral), vehicle: saline + alcohol) 120 % of control; (endpoint: median survival time, dose: 32.0 mg/kg/injection, schedule: Q01DX001 (ip), vehicle: other) 333 % of control; (endpoint: median survival time, dose: 50.0 mg/kg/injection, schedule: Q01DX001 (ip), vehicle: DMSO) 123 % of control. In addition, the T/C was 155 % of control (endpoint: median survival time, dose: 50.0 mg/kg/injection, schedule: Q01DX001 (ip), vehicle: saline + alcohol); 88 % of control (endpoint: median survival time, dose: 64.0 mg/kg/injection, schedule: Q01DX001 (ip), vehicle: other); 169 % of control (endpoint: median survival time, dose: 100.0 mg/kg/injection, schedule: Q01DX001 (ip), vehicle: DMSO); 92 % of control (endpoint: median survival time, dose: 100.0 mg/kg/injection, schedule: Q01DX001 (ip), vehicle: saline + alcohol); 246 % of control (endpoint: median survival time, dose: 100.0 mg/kg/injection, schedule: Q01DX001 (oral), vehicle: saline + alcohol).
For the molecule `CCCCCC(=O)O[C@]1(C(C)=O)CC[C@H]2[C@@H]3CCC4=CC(=O)CC[C@]4(C)[C@H]3CC[C@@]21C`, the T/C (endpoint: median survival time, dose: 8.0 mg/kg/injection, schedule: Q01DX009 (ip), vehicle: saline with Tween-80) is 117 % of control; the T/C (endpoint: median survival time, dose: 16.0 mg/kg/injection, schedule: Q01DX009 (ip), vehicle: saline with Tween-80) was 104 % of control; the T/C (endpoint: median survival time, dose: 32.0 mg/kg/injection, schedule: Q01DX009 (ip), vehicle: saline with Tween-80) was 114 % of control; the T/C (endpoint: median survival time, dose: 64.0 mg/kg/injection, schedule: Q01DX009 (ip), vehicle: saline with Tween-80) is 94 % of control; the T/C (endpoint: median survival time, dose: 128.0 mg/kg/injection, schedule: Q01DX009 (ip), vehicle: saline with Tween-80) is 93 % of control; the T/C (endpoint: median survival time, dose: 256.0 mg/kg/injection, schedule: Q01DX009 (ip), vehicle: saline with Tween-80) is 94 % of control. Also, the T/C (endpoint: median survival time, dose: 512.0 mg/kg/injection, schedule: Q01DX009 (ip), vehicle: saline with Tween-80) was 107 % of control.
`COC(=O)NC1=C(N2CC2)C(=O)C(NC(=O)OC)=C(N2CC2)C1=O`: the T/C (endpoint: median survival time, dose: 0.37 mg/kg/injection, schedule: Q01DX009 (ip), vehicle: saline) is 112 % of control and 117 % of control; the T/C (endpoint: median survival time, dose: 0.75 mg/kg/injection, schedule: Q01DX009 (ip), vehicle: saline) is 120 % of control and 122 % of control.
`O=C1C(=O)c2ccccc2C(O)=C1CC=C(Cl)Cl`: the T/C is, setting by setting: (endpoint: median survival time, dose: 10.0 mg/kg/injection, schedule: Q01DX005 (ip), vehicle: Klucel (hydroxypropylcellulose) (HPC)) 89 % of control and 96 % of control; (endpoint: median survival time, dose: 20.0 mg/kg/injection, schedule: Q01DX005 (ip), vehicle: Klucel (hydroxypropylcellulose) (HPC)) 95 % of control and 96 % of control; (endpoint: median survival time, dose: 40.0 mg/kg/injection, schedule: Q01DX005 (ip), vehicle: Klucel (hydroxypropylcellulose) (HPC)) 101 % of control and 109 % of control; (endpoint: median survival time, dose: 80.0 mg/kg/injection, schedule: Q01DX005 (ip), vehicle: Klucel (hydroxypropylcellulose) (HPC)) 109 % of control and 117 % of control.
Regarding `Nc1ncnc2c1ncn2C1OC(COP(=O)(O)O)C(O)C1O` (stereo unspecified), the T/C under setting [1] is 109 % of control and 110 % of control and 112 % of control; the T/C under setting [2] is 97 % of control and 104 % of control and 115 % of control; the T/C under setting [3] is 96 % of control and 101 % of control and 117 % of control; the T/C (endpoint: median survival time, dose: 800.0 mg/kg/injection, schedule: Q01DX009 (ip), vehicle: saline) is 101 % of control and 108 % of control.
With `C[C@@H](CN1CC(=O)NC(=O)C1)N1CC(=O)NC(=O)C1`, the T/C was 164 % of control (endpoint: mean survival time, dose: 64.0 mg/kg/injection, schedule: Q01DX009 (ip), vehicle: water); 111 % of control (endpoint: mean survival time, dose: 256.0 mg/kg/injection, schedule: Q01DX009 (ip), vehicle: water); 100 % of control (endpoint: mean survival time, dose: 512.0 mg/kg/injection, schedule: Q01DX009 (ip), vehicle: water).
For `Nc1nc(F)nc2c1ncn2C1OC(COP(=O)(O)O)C(O)C1O` (stereo unspecified), the T/C runs as follows: (endpoint: median survival time, dose: 60.0 mg/kg/injection, schedule: Q01DX009 (ip), vehicle: saline) 109 % of control; (endpoint: median survival time, dose: 90.0 mg/kg/injection, schedule: Q01DX009 (ip), vehicle: saline) 106 % of control; under setting [2], 116 % of control.
On to `CN(C)CC(=O)c1ccc(O)c(O)c1`, for which the T/C (endpoint: median survival time, dose: 100.0 mg/kg/injection, schedule: Q01DX005 (ip), vehicle: saline) was 95 % of control and 107 % of control; the T/C (endpoint: median survival time, dose: 200.0 mg/kg/injection, schedule: Q01DX005 (ip), vehicle: saline) is 109 % of control; the T/C (endpoint: median survival time, dose: 400.0 mg/kg/injection, schedule: Q01DX005 (ip), vehicle: saline) was 290 % of control and 103 % of control; the T/C (endpoint: median survival time, dose: 800.0 mg/kg/injection, schedule: Q01DX005 (ip), vehicle: saline) was 88 % of control and 110 % of control.
Consider `Nc1ncn(C2OC(CO)C(O)C2O)c(=O)n1` (stereo unspecified), for which the T/C (endpoint: mean survival time, dose: 0.75 mg/kg/injection, schedule: Q01DX009 (ip), vehicle: saline) was 116 % of control; the T/C (endpoint: mean survival time, dose: 1.5 mg/kg/injection, schedule: Q01DX009 (ip), vehicle: saline) is 116 % of control; the T/C (endpoint: mean survival time, dose: 3.0 mg/kg/injection, schedule: Q01DX009 (ip), vehicle: saline) is 120 % of control; the T/C (endpoint: median survival time, dose: 0.28 mg/kg/injection, schedule: Q03HX024 (ip), vehicle: saline) is 100 % of control; the T/C (endpoint: median survival time, dose: 0.5 mg/kg/injection, schedule: Q01DX005 (ip), vehicle: water) is 103 % of control; the T/C (endpoint: median survival time, dose: 0.59 mg/kg/injection, schedule: Q03HX024 (ip), vehicle: saline) is 151 % of control. The T/C (endpoint: median survival time, dose: 1.0 mg/kg/injection, schedule: Q01DX005 (ip), vehicle: water) is 103 % of control; the T/C (endpoint: median survival time, dose: 1.17 mg/kg/injection, schedule: Q03HX024 (ip), vehicle: saline) was 261 % of control; the T/C (endpoint: median survival time, dose: 2.0 mg/kg/injection, schedule: Q01DX005 (ip), vehicle: water) is 114 % of control; the T/C (endpoint: median survival time, dose: 2.25 mg/kg/injection, schedule: Q03HX024 (ip), vehicle: saline) is 170 % of control; the T/C (endpoint: median survival time, dose: 2.34 mg/kg/injection, schedule: Q03HX024 (ip), vehicle: saline) is 293 % of control; the T/C (endpoint: median survival time, dose: 3.12 mg/kg/injection, schedule: Q01DX009 (ip), vehicle: saline) was 213 % of control. The T/C by setting is: (endpoint: median survival time, dose: 4.5 mg/kg/injection, schedule: Q03HX024 (ip), vehicle: saline) 113 % of control; (endpoint: median survival time, dose: 4.69 mg/kg/injection, schedule: Q03HX024 (ip), vehicle: saline) 363 % of control; (endpoint: median survival time, dose: 6.0 mg/kg/injection, schedule: Q01DX009 (ip), vehicle: saline) 173 % of control; (endpoint: median survival time, dose: 6.25 mg/kg/injection, schedule: Q01DX009 (ip), vehicle: saline) 214 % of control; (endpoint: median survival time, dose: 8.0 mg/kg/injection, schedule: Q01DX005 (ip), vehicle: water) 98 % of control; (endpoint: median survival time, dose: 9.38 mg/kg/injection, schedule: Q03HX024 (ip), vehicle: saline) 681 % of control. For the same molecule, the T/C reads like this: (endpoint: median survival time, dose: 12.0 mg/kg/injection, schedule: Q01DX009 (ip), vehicle: saline) 102 % of control; (endpoint: median survival time, dose: 12.5 mg/kg/injection, schedule: Q01DX009 (ip), vehicle: saline) 250 % of control and 284 % of control and 325 % of control; (endpoint: median survival time, dose: 18.75 mg/kg/injection, schedule: Q03HX024 (ip), vehicle: saline) 681 % of control; (endpoint: median survival time, dose: 25.0 mg/kg/injection, schedule: Q01DX009 (ip), vehicle: saline) 298 % of control and 300 % of control and 348 % of control; (endpoint: median survival time, dose: 50.0 mg/kg/injection, schedule: Q01DX009 (ip), vehicle: saline) 290 % of control and 295 % of control and 334 % of control; (endpoint: median survival time, dose: 75.0 mg/kg/injection, schedule: Q03HX024 (ip), vehicle: saline) 98 % of control. Further, the T/C is 348 % of control and 378 % of control and 386 % of control under setting [1]; 151 % of control and 209 % of control under setting [2]; 181 % of control under setting [3].
